Reference: patent publication US20100086483A1, “METHOD OF MULTIDETECTOR COMPUTED TOMAGRAPHY” (Gilead Palo Alto, Inc., priority 2008, published 2010)

Test system: conscious dogs
Assay: Effects of caffeine on regadenoson-induced coronary vasodilation and changes in hemodynamics in conscious dogs (Part II)
Format: in vivo, dog
Details: for duration of 2-fold increase in CBF / maximum CBF: time control group, 4 dogs
Description: Sixteen chronically instrumented male mongrel dogs weighing from 22-30 kg were used in the study. The animal protocol was approved by the Institutional Animal Care and Use Committee of New York Medical College and conforms to the Guide for the Care and Use of Laboratory Animal by the United States National Institutes of Health.
Dogs were sedated with acepromazine (0.3 mg/kg, IM) and anesthetized with pentobarbital sodium (25 mg/kg, IV). After intubation, dogs were artificially ventilated with room air. A thoracotomy was made in the fifth intercostal space using sterile techniques. A Tygon catheter (Cardiovascular Instruments, Wakefield, Mass.) was inserted into the descending thoracic aorta and another one was inserted into the left atrium. In 9 dogs, an ultrasound flow transducer (Transonic Systems, Ithaca, N.Y.) was placed around the left circumflex coronary artery. A solid-state pressure gauge (P6.5, Konisberg Instruments, Pasadena, Calif.) was placed into the left ventricle through the apex. The chest was closed in layers. The catheters and wires were tunneled subcutaneously and externalized through the skin at the back of the dog's neck. Dogs were allowed to recover from the surgery before experiments were performed, and were trained to lie on a table.
Phasic arterial pressure was measured by connecting the aortic catheter to a strain gauge transducer (P23 ID, LDS Test and Measurement, Valley View, Ohio). Left ventricular pressures were measured by the solid pressure gauge. CBF (mL/min) was measured from an ultrasound flow transducer using a Transonic flowmeter (T206, Transonic Systems, Ithaca, N.Y.). Two indices were used to describe the regadenoson-induced coronary vasodilation: 1) the maximum increase in CBF and 2) the duration of the 2-fold increase in CBF (the period of time that CBF was elevated to a level ≧2-fold of baseline CBF). All pressure and flow data were acquired and analyzed using a Ponemah System (Version 3.30 or 4.20, LDS Test and Measurement, Valley View, Ohio). MAP and HR were calculated from phasic blood pressure, and LV dP/dtMax was calculated from the left ventricular systolic pressure.
On the day of an experiment, a dog was placed on a table, where it lay quietly during the experiment. A catheter was inserted into a peripheral vein in the leg and attached to an infusion line to administer drugs without disturbing the dog. The experiment was begun after MAP, HR and CBF were stable.
Each dog received an IV injection of 5 μg/kg of regadenoson. […] LVSP, LV dP/dtMax, MAP, HR and CBF were recorded continuously. Blood samples were taken from the left atrial catheter at 1, 3, 5, 15, 30, 45 and 60 min following injections of regadenoson.
In 4 dogs, two doses of regadenoson (5 μg/kg, IV) were given 90 min apart (without blood sampling) to determine if there is tachyphylaxis of regadenoson-induced coronary vasodilation.
The statistical significance of a difference between the value of a parameter at baseline and at the indicated time point after drug administration was determined using a One-Way Repeated Measures ANOVA followed by Tukey's Test. […] Results with p<0.05 were considered to be significant. […] All data are presented as Mean±SEM.

[1] = regadenoson 5 μg/kg IV without caffeine (control of caffeine 2 mg/kg group), 3 min
[2] = regadenoson 5 μg/kg IV without caffeine (control of caffeine 2 mg/kg group), 4 min
[3] = regadenoson 5 μg/kg IV without caffeine (control of caffeine 2 mg/kg group), 5 min
[4] = regadenoson 5 μg/kg IV without caffeine (control of caffeine 2 mg/kg group), 10 min
[5] = regadenoson 5 μg/kg IV without caffeine (control of caffeine 2 mg/kg group), 15 min
[6] = regadenoson 5 μg/kg IV without caffeine (control of caffeine 2 mg/kg group), 20 min
[7] = regadenoson 5 μg/kg IV without caffeine (control of caffeine 4 mg/kg group), 0.5 min
[8] = regadenoson 5 μg/kg IV without caffeine (control of caffeine 4 mg/kg group), 1 min
[9] = regadenoson 5 μg/kg IV without caffeine (control of caffeine 4 mg/kg group), 2 min
[10] = regadenoson 5 μg/kg IV without caffeine (control of caffeine 4 mg/kg group), 3 min
[11] = regadenoson 5 μg/kg IV without caffeine (control of caffeine 4 mg/kg group), 4 min
[12] = regadenoson 5 μg/kg IV without caffeine (control of caffeine 4 mg/kg group), 5 min
[13] = regadenoson 5 μg/kg IV without caffeine (control of caffeine 4 mg/kg group), 10 min
[14] = regadenoson 5 μg/kg IV without caffeine (control of caffeine 4 mg/kg group), 15 min
[15] = regadenoson 5 μg/kg IV without caffeine (control of caffeine 4 mg/kg group), 20 min
[16] = regadenoson 5 μg/kg IV without caffeine (control of caffeine 10 mg/kg group), 0.5 min
[17] = regadenoson 5 μg/kg IV without caffeine (control of caffeine 10 mg/kg group), 1 min
[18] = regadenoson 5 μg/kg IV without caffeine (control of caffeine 10 mg/kg group), 2 min
[19] = regadenoson 5 μg/kg IV without caffeine (control of caffeine 10 mg/kg group), 3 min
[20] = regadenoson 5 μg/kg IV without caffeine (control of caffeine 10 mg/kg group), 4 min
[21] = regadenoson 5 μg/kg IV without caffeine (control of caffeine 10 mg/kg group), 5 min
[22] = regadenoson 5 μg/kg IV without caffeine (control of caffeine 10 mg/kg group), 10 min
[23] = regadenoson 5 μg/kg IV without caffeine (control of caffeine 10 mg/kg group), 15 min
[24] = regadenoson 5 μg/kg IV without caffeine (control of caffeine 10 mg/kg group), 20 min
[25] = regadenoson 5 μg/kg IV, absence of caffeine, n=8
[26] = regadenoson 5 μg/kg IV, absence of caffeine, n=9
[27] = first injection of regadenoson 5 μg/kg IV
[28] = second injection of regadenoson 5 μg/kg IV 90 min later

Compound: CNC(=O)c1cnn(-c2nc(N)c3ncn([C@@H]4O[C@H](CO)[C@@H](O)[C@H]4O)c3n2)c1 [Regadenoson, (1-{9-[(4S,2R,3R,5R)-3,4-dihydroxy-5-(hydroxymethyl)oxolan-2-yl]-6-aminopurin-2-yl}pyrazol-4-yl)-N-methylcarboxamide]
- HR [1]: 137 ± 5 bpm
- MAP [1]: 91 ± 3 mm Hg
- HR [2]: 127 ± 4 bpm
- MAP [2]: 93 ± 4 mm Hg
- HR [3]: 129 ± 6 bpm
- MAP [3]: 90 ± 3 mm Hg
- HR [4]: 104 ± 5 bpm
- MAP [4]: 91 ± 2 mm Hg
- HR [5]: 104 ± 6 bpm
- MAP [5]: 96 ± 3 mm Hg
- HR [6]: 93 ± 7 bpm
- MAP [6]: 97 ± 3 mm Hg
- HR [7]: 166 ± 18 bpm
- MAP [7]: 107 ± 6 mm Hg
- HR [8]: 163 ± 8 bpm
- MAP [8]: 95 ± 5 mm Hg
- HR [9]: 158 ± 6 bpm
- MAP [9]: 99 ± 4 mm Hg
- HR [10]: 141 ± 4 bpm
- MAP [10]: 98 ± 4 mm Hg
- HR [11]: 131 ± 6 bpm
- MAP [11]: 100 ± 2 mm Hg
- HR [12]: 128 ± 7 bpm
- MAP [12]: 100 ± 2 mm Hg
- HR [13]: 113 ± 5 bpm
- MAP [13]: 100 ± 2 mm Hg
- HR [14]: 102 ± 6 bpm
- MAP [14]: 101 ± 4 mm Hg
- HR [15]: 101 ± 6 bpm
- MAP [15]: 102 ± 4 mm Hg
- HR [16]: 149 ± 15 bpm
- MAP [16]: 93 ± 3 mm Hg
- HR [17]: 144 ± 7 bpm
- MAP [17]: 86 ± 4 mm Hg
- HR [18]: 148 ± 5 bpm
- MAP [18]: 89 ± 4 mm Hg
- HR [19]: 135 ± 4 bpm
- MAP [19]: 89 ± 4 mm Hg
- HR [20]: 130 ± 5 bpm
- MAP [20]: 92 ± 4 mm Hg
- HR [21]: 127 ± 6 bpm
- MAP [21]: 92 ± 4 mm Hg
- HR [22]: 105 ± 4 bpm
- MAP [22]: 95 ± 4 mm Hg
- HR [23]: 98 ± 3 bpm
- MAP [23]: 93 ± 6 mm Hg
- HR [24]: 99 ± 7 bpm
- MAP [24]: 98 ± 5 mm Hg
- peak increase in LV dP/dtMax from baseline (regadenoson 5 μg/kg IV, absence of caffeine): 65±7%
- duration of the 2-fold increase in CBF [25]: 515 ± 71 s
- peak CBF [25]: 191 ± 7 mL/min
- peak decrease in LVSP from baseline [25]: 9±1%
- peak decrease in MAP from baseline [26]: 15±2%
- peak increase in HR from baseline [26]: 114±14%
- duration of 2-fold increase in CBF [27]: 401 ± 45 s
- maximum CBF [27]: 178 ± 17 mL/min
- duration of 2-fold increase in CBF [28]: 395 ± 43 s
- maximum CBF [28]: 176 ± 6 mL/min
- differences in baseline CBF, maximum CBF or duration of 2-fold increase in CBF between two injections (tachyphylaxis) (two injections of regadenoson 5 μg/kg IV 90 min apart): no statistically significant differences
